Data on 2 compounds can be found in PMC10344917, “Affinity and cooperativity modulate ternary complex formation to drive targeted protein degradation” (Nature Communications, 2023).

Structures are written as SMILES.

The Dmax is the largest share of the target that was removed. Broadly, the DC50 is the concentration giving 50% degradation.

One assay deals with T1, VHL/EloB/EloC (VBC) (Homo sapiens, UniProt P40337).
T1 construct: VHL (54-213), ElonginB (17-112) ElonginC (1-104); made in house
As to the kind of experiment: SPR binary binding of PROTAC to VBC-functionalized surface. The settings on record: SPR; error SEM, N = 3; read-out: KLP (binary binding affinity between E3 ligase VHL and PROTAC).

Assay [1] has as its target T2, VBC / SMARCA2^BD ternary complex (Homo sapiens, UniProt P40337+P51531).
T2 construct: VHL (54-213), ElonginB (17-112) ElonginC (1-104); SMARCA2^BD 1373–1511 ∆1400–1417; His6 (N, cleaved yes); made in house
As to the kind of experiment: SPR ternary complex binding, VBC surface with preformed PROTAC/SMARCA2 bromodomain complex. The settings on record: for Kd: SPR, VHL, PROTAC, error SEM, N = 3, read-out: KLPT (ternary complex binding affinity). Here is the method:
SPR experiments were performed on a Biacore 8 K or T200 instrument (Cytiva). […] The running buffer during immobilization was PBS with 0.005% P20. Either high-density (3000-4000 RU) or low-density (300-400 RU) VBC-functionalized surfaces were created, followed by equilibration in the running buffer for 3 h.
PROTACs (10 mM in 100% DMSO) were initially prepared at 200 nM in a running buffer (20 mM Tris pH 8.0, 250 mM NaCl, 1 mM TCEP, 0.01% P20, 0.2 mg/ml BSA) with a concentration of 2% DMSO. This solution was mixed at 1:1 ratio with a solution of 5 μM of the SMARCA2 or BRD4 bromodomain protein in the running buffer. This complex was then serially diluted in the running buffer containing 2.5 μM SMARCA2 or BRD4 and 2% DMSO (5-point five-fold serial dilution). For ternary experiments, solutions were injected sequentially in single-cycle kinetic format without regeneration (contact time 60 s, flow rate 80 μL/min, dissociation time 300 s) using a stabilization period of 60 s and syringe wash (50% DMSO) between injections onto a low-density VBC-functionalized surface.
(§1) Raw sensorgrams were processed by performing double reference subtraction, solvent correction, and analysis was done using Biacore Insight Evaluation Software. Kinetic analysis was performed by fitting data to a 1:1 Langmuir interaction model and a steady-state affinity model was used to evaluate equilibrium binding affinity.

A further assay concerns the target T3, SMARCA2^BD (Homo sapiens, UniProt P51531).
T3 construct: SMARCA2^BD 1373–1511 ∆1400–1417; made in house
As to the kind of experiment: SPR binary binding of PROTAC to SMARCA2-functionalized surface. The settings on record: 1:1 Langmuir binding model, SEM N=3 or SD N=2, read-out: KTP (binary affinity PROTAC / SMARCA2). Here is the method:
PROTACs (10 mM stocks in 100% DMSO) were diluted to 400 nM in a running buffer (20 mM Tris pH 7.5, 200 mM NaCl, 0.02% P20). This stock solution was then serially diluted in the running buffer containing final 2% DMSO. Solutions were injected in multi-cycle kinetic format without regeneration (contact time 60 s, flow rate 80 μL/min, dissociation time 120 s) using a stabilization period of 30 s and syringe wash (50% DMSO) between injections onto a high-density VBC-functionalized surface. For SMARCA2 analysis, biotinylated proteins were introduced on a Series S streptavidin (SA) sensor chip at high-density (3000-4000 RU).
as §1

In a further assay the target is T4, SMARCA2 (Homo sapiens, UniProt P51531).
T4 construct: endogenous in cells; host or cells: A375
As to the kind of experiment: SMARCA2 degradation, MSD assay, dose response. On the set-up: key to AUC (area under the dose-response curve): sum of trapezoids of POC vs dose points, h = 1. The settings on record: for Dmax: A-375, SMARCA2 degraded; for Dmax / DC50: MSD assay, 2 h timepoint; for Dmax / AUC (area under the dose-response curve) / DC50: A375 cells; for AUC (area under the dose-response curve): SMARCA2 MSD assay, 2 h; for DC50: SMARCA2 degradation. It is filed as cell-based. Here is the method: A375 cells were treated with SMARCA2 or BRD4 degraders for 2 h (4 h for BRD4) and generated lysates. SMARCA2 or BRD4 protein was measured with a variation of a sandwich ELISA that was assembled from commercially available antibodies as well as reagents and instrumentation procured from Meso Scale Discovery (MSD). Degradation parameter, DC50, is not suitable for PROTACs that induce partial/incomplete DR curves at a fixed time point; maximum drop in target protein level (Dmax) >>0. Conversely, the area under the curve (AUC) can be calculated as a degradation activity parameter for any DR curve, and it encompasses both the degradation potency (i.e., DC50) and efficacy (i.e., Dmax) of PROTACs.
A 1:3 compound dose-response titration was diluted in growth media (1:20), added to appropriate wells of a cell culture plate (1:10) and then assay plates were incubated at 37 °C, 5% CO2.
Plates were washed with 300 µL per well MSD wash buffer (MSD R61TX-1) between each step. Following the last incubation, plates were washed with MSD wash buffer then 150 µL of MSD read buffer (MSD R92TC-2) was added to each well. Plates were immediately read on a MSD plate reader (MSD Sector Imager 6000).
MSD electrochemiluminescence signals were subtracted by the average background signal from wells with lysis buffer alone. Normalized MSD values (POC) for individual compound treated wells were acquired by dividing background-subtracted assay signal by signal from vehicle control wells (cells + 0.1% DMSO) and multiplying by 100. This POC data was graphed using a nonlinear regression curve fit xy analysis and a log(inhibitor) vs response —variable slope (four parameter) model for dose response curves (Graphpad Prism 9, San Diego, CA, USA). To calculate area under the curve, all points on the curve were connected and vertical lines were drawn from each point down to y = 0, generating a series of trapezoids. The area of each trapezoid was determined using the equation A = (1/2)(h)(b1 + b2), where h = 1 (distance between points), b1 = POC of the first point and b2 = POC of the second point. The sum of all trapezoids provides an approximate area under the curve (AUC). For half-life (t1/2) determination in time course studies, a one-phase decay model was used for curve fitting and the time at which the curve crossed 50 POC was determined through interpolation (Graphpad Prism 9, San Diego, CA, USA).

T4 sequence (P51531 whole entry): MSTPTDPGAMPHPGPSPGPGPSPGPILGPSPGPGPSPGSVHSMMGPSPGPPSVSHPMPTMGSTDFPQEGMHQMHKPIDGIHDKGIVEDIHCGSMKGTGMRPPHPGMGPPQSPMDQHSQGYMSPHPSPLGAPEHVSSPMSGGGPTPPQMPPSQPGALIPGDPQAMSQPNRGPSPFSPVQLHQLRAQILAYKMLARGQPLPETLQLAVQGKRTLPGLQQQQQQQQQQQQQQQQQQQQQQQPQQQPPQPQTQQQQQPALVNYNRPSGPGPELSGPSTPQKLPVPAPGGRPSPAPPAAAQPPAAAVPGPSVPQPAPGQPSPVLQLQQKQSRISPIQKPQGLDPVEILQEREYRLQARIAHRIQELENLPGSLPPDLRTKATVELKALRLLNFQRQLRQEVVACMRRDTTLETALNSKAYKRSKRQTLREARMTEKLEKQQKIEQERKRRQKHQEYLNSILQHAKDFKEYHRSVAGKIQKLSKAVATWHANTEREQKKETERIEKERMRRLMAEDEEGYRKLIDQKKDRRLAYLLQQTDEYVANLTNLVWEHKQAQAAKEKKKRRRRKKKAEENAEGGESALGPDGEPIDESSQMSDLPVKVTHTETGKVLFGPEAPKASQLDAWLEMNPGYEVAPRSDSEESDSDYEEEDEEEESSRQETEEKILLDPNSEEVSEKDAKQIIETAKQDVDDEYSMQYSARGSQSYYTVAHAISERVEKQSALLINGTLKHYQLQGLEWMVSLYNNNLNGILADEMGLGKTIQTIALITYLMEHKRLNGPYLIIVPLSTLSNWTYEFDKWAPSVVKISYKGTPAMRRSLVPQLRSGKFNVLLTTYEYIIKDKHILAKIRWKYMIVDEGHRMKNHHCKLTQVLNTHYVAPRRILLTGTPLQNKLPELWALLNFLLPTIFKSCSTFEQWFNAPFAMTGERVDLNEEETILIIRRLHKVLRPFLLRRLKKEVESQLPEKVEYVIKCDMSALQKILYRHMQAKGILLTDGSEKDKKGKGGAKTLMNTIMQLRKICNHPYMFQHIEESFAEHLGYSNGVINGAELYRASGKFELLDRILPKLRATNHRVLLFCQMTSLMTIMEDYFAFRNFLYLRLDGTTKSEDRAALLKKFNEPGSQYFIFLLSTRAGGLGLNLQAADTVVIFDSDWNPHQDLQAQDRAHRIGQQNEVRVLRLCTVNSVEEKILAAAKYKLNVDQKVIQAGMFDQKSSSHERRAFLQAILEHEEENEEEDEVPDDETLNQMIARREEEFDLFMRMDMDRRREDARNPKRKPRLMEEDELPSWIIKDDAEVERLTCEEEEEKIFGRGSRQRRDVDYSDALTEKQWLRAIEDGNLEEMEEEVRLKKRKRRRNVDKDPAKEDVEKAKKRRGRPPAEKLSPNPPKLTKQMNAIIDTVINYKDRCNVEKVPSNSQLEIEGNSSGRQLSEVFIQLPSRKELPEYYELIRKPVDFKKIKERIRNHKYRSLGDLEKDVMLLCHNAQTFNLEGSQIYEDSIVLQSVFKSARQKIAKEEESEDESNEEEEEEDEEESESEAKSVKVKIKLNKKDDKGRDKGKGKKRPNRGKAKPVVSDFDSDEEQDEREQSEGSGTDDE
T2 sequence (P40337 54-213): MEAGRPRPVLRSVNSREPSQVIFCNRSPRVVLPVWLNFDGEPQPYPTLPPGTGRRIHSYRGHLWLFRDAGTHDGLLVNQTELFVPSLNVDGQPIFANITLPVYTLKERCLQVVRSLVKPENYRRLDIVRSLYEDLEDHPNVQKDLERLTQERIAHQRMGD
T2 sequence (P51531 other isoform, or with tags, fused parts or gaps): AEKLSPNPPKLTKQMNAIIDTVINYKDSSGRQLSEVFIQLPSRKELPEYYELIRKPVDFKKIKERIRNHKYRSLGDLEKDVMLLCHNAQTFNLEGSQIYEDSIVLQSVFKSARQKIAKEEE
T2 sequence (Q15370 1-104, further chain): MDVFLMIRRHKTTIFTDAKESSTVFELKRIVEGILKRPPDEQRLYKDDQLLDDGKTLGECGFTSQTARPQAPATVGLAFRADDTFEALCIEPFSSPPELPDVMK
T2 sequence (Q15369 17-112, further chain): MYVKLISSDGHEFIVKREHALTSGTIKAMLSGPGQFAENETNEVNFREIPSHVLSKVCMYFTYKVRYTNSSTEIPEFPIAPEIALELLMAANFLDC
T1 sequence (Q15369 17-112): as the sequence (Q15369 17-112, further chain) above
T1 sequence (Q15370 1-104, further chain): as the sequence (Q15370 1-104, further chain) above
T1 sequence (P40337 54-213): as the sequence (P40337 54-213) above
T3 sequence (P51531 1373-1493 isoform P51531-2): as the sequence (P51531 other isoform, or with tags, fused parts or gaps) above

As to `Cc1ncsc1-c1ccc([C@H](C)NC(=O)[C@@H]2C[C@@H](O)CN2C(=O)[C@@H](NC(=O)CCc2ccnc(N3CCN(c4cc(-c5ccccc5O)nnc4N)CC3)c2)C(C)(C)C)cc1` [Compound 8, (2S,4R)-1-((S)-2-(3-(2-(4-(3-Amino-6-(2-hydroxyphenyl)pyridazin-4-yl)piperazin-1-yl)pyridin-4-yl)propanamido)-3,3-dimethylbutanoyl)-4-hydroxy-N-((S)-1-(4-(4-methylthiazol-5-yl)phenyl)ethyl)pyrrolidine-2-carboxamide], the Kd on VHL/EloB/EloC (VBC) amounted to 7 ± 2 nM. In addition, in assay [1], the “α (cooperativity, KLP/KLPT)” value stood at 0.26 and the Kd turned out to be 27 ± 3 nM. Further, the Kd at SMARCA2^BD came out at 49 ± 12 nM. On SMARCA2, the Dmax is 80%, the “AUC (area under the dose-response curve)” value is 75 and the DC50 turned out to be 379 nM.

Take `Cc1ncsc1-c1ccc([C@H](C)NC(=O)[C@@H]2C[C@@H](O)CN2C(=O)[C@@H](NC(=O)c2ccnc(N3CCN(c4cnnc(-c5ccccc5O)c4)CC3)c2)C(C)(C)C)cc1` [Compound 10, N-((S)-1-((2S,4R)-4-Hydroxy-2-(((S)-1-(4-(4-methylthiazol-5-yl)phenyl)ethyl)carbamoyl)pyrrolidin-1-yl)-3,3-dimethyl-1-oxobutan-2-yl)-2-(4-(6-(2-hydroxyphenyl)pyridazin-4-yl)piperazin-1-yl)isonicotinamide]: at VHL/EloB/EloC (VBC), the Kd stood at 60 ± 5 nM. Further, in assay [1], the “α (cooperativity, KLP/KLPT)” value came out at 0.24 and the Kd was 250 ± 30 nM. Also, the Kd at SMARCA2^BD was found to be 745 ± 134 nM. Also, the SMARCA2 degradation at SMARCA2 (2 h MSD assay) is ~ 30%. Moreover, on SMARCA2, the Dmax came to 65%, the “AUC (area under the dose-response curve)” value is 100 and the DC50 is 469 nM.
